Measured values as given in patent US9096598B2 (Merck Sharp & Dohme Corp., priority 2011, dated 2015).

Assays:
JAK2 = target: T1, JAK2 (Homo sapiens, UniProt O60674); assay: Jak Biochemical HTRF Assay (JAK2); details: recombinant purified GST-tagged catalytic domain, [ATP] 8.5 μM, values given as range classes
T1 construct: recombinant purified GST-tagged catalytic domain for each enzyme; purchased Invitrogen M4290
Procedure: (§1) Jak Biochemical HTRF Assay Protocol
(§2) The ability of compounds to inhibit the activity of JAK1, JAK2, JAK3, and Tyk2 was measured using a recombinant purified GST-tagged catalytic domain for each enzyme (Invitrogen JAK1 #M4290, JAK2 #M4290, JAK3 #M4290, Tyk2 #M4290) in an HTRF format biochemical assay. The reactions employed a common peptide substrate, LCB-EQEDEPEGDYFEWLW-NH2 (in-house). The basic assay protocol is as follows: First, 250 nL of diluted compounds in DMSO were dispensed into the wells of a dry 384-well Black plate (Greiner #781076) using a Labcyte Echo 555 acoustic dispenser. Subsequent reagent additions employed an Agilent Bravo. Next, 18 μL of 1.11× enzyme and 1.11× substrate in 1× assay buffer (Invitrogen kinase buffer #PV3189, 2 mM DTT, 0.05% BSA) were added to the wells and shaken and then preincubated for 30 minutes at room temperature to allow compound binding to equilibrate. After equilibration, 2 μL of 10×ATP in 1× assay buffer was added to initiate the kinase reaction and the plates were shaken and then incubated at room temperature for 120 minutes. At the end of the incubation, 20 μL of 2× stop buffer (streptavidin-Dylight 650 (Thermo #84547B/100 mL), Eu-tagged pY20 antibody (Perkin Elmer #AD0067), EDTA, HEPES, and Triton) was added to quench the reaction. Plates were shaken and centrifuged and then incubated 60 minutes at room temperature and then read on a Perkin Elmer Envision (λex=337 nm, λem=665 and 615 nm, TRF delay time=20 μs). HTRF signal=10,000*665 nm reading/615 nm reading. After normalization to untreated controls, the percent inhibition of the HTRF signal at each compound concentration was calculated. The plot of percent inhibition versus the log of compound concentration was fit with a 4-parameter dose response equation to calculate IC50 values.
(§3) Final reaction conditions were:
(§4) Examples of the instant invention were evaluated in JAK2 and JAK3 in vitro binding assays. Table 13 tabulates the biological data disclosed for the instant invention as a range of JAK2 and JAK3 IC50 values (A: IC50≦10 nM; B: 10 nM>IC50≦500 nM C: IC50>500 nM).

JAK3 = target: T2, JAK3 (Homo sapiens, UniProt P52333); assay: Jak Biochemical HTRF Assay (JAK3); details: recombinant purified GST-tagged catalytic domain, [ATP] 2.9 μM, values given as range classes
T2 construct: recombinant purified GST-tagged catalytic domain for each enzyme; purchased Invitrogen M4290
T2 sequence (P52333 822-1111 limits assumed): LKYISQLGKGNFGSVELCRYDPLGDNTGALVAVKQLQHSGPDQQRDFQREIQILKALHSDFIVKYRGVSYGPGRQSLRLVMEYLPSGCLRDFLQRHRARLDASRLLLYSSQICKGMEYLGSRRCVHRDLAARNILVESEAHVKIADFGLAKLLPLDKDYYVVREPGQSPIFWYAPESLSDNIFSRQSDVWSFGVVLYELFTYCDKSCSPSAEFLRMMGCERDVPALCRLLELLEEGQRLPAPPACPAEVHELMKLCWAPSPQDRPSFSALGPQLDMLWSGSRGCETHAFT
Procedure: as §1, §2, §3, §4

T1 sequence (O60674 849-1124 limits assumed): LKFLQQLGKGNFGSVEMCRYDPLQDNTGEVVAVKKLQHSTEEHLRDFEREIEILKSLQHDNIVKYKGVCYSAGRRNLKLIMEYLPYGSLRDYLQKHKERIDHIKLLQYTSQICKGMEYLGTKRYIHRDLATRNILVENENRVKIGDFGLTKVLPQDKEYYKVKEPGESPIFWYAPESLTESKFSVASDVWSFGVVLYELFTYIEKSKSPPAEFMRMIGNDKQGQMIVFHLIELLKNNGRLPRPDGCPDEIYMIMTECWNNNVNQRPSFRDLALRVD

## CC(C)[C@@H](Nc1cncc(-c2c[nH]c3ncc(COCCN4CCCC4)cc23)c1)C(=O)NCC(F)(F)F [Example 9-1, (R)-3-methyl-2-(5-(5-((2-(pyrrolidin-1-yl)ethoxy)methyl)-1H-pyrrolo[2,3-b]pyridin-3-yl)pyridin-3-ylamino)-N-(2,2,2-trifluoroethyl)butanamide]
JAK2
  IC50: 10 to 500 nM
JAK3
  IC50: 10 to 500 nM

## CC(C)(Nc1cncc(-c2c[nH]c3ncc(C(N)=O)cc23)c1)C(=O)NCC(F)(F)F [Example 1-47, 3-[5-({1,1-dimethyl-2-oxo-2-[(2,2,2-trifluoroethyl)amino]ethyl}amino)pyridin-3-yl]-1H-pyrrolo[2,3-b]pyridine-5-carboxamide]
JAK2
  IC50: 10 to 500 nM
JAK3
  IC50: ≤ 10 nM

## CC(C)C(Nc1cncc(-c2c[nH]c3ncc(S(=O)(=O)N(C)C)cc23)c1)C(=O)NCC(F)(F)F (stereo not drawn) [Example 4-2, 2-(5-(5-(N,N-dimethylsulfamoyl)-1H-pyrrolo[2,3-b]pyridin-3-yl)pyridin-3-ylamino)-3-methyl-N-(2,2,2-trifluoroethyl)butanamide]
JAK2
  IC50: > 500 nM
JAK3
  IC50: 10 to 500 nM

## CC(C)(Nc1cnnc(-c2c[nH]c3ncc(C#N)cc23)n1)C(=O)NCC(F)(F)F [Example 1-7, N~2~-[3-(5-cyano-1H-pyrrolo[2,3-b]pyridin-3-yl)-1,2,4-triazin-5-yl]-2-methyl-N-(2,2,2-trifluoroethyl)alaninamide]
JAK2
  IC50: 10 to 500 nM
JAK3
  IC50: ≤ 10 nM

## C[C@@H](Nc1cnnc(-c2c[nH]c3ncc(Cl)cc23)c1)C(=O)NCC(F)(F)F [Example 1-24, N~2~-[6-(5-chloro-1H-pyrrolo[2,3-b]pyridin-3-yl)pyridazin-4-yl]-N-(2,2,2-trifluoroethyl)-D-alaninamide]
JAK2
  IC50: 10 to 500 nM
JAK3
  IC50: ≤ 10 nM

## C[C@@H](Nc1cncc(-c2c[nH]c3ncc(S(C)(=O)=O)cc23)c1)C(=O)NCC(F)(F)F [Example 1-34, N~2~-{5-[5-(methylsulfonyl)-1H-pyrrolo[2,3-b]pyridin-3-yl]pyridin-3-yl}-N-(2,2,2-trifluoroethyl)-D-alaninamide]
JAK2
  IC50: > 500 nM
JAK3
  IC50: ≤ 10 nM

## CC(C)[C@H](Nc1cncc(-c2c[nH]c3ncc(NS(C)(=O)=O)cc23)c1)C(=O)NCC(F)(F)F [Example 5-4, N^2-(5-{5-[(methylsulfonyl)amino]-1H-pyrrolo[2,3-b]pyridin-3-yl}pyridin-3-yl)-N-(2,2,2-trifluoroethyl)-L-valinamide]
JAK2
  IC50: > 500 nM
JAK3
  IC50: 10 to 500 nM

## CC(C)(Nc1cncc(-c2c[nH]c3ncc(F)cc23)c1)C(=O)NCC(F)(F)F [Example 1-43, N~2~-[5-(5-fluoro-1H-pyrrolo[2,3-b]pyridin-3-yl)pyridin-3-yl]-2-methyl-N-(2,2,2-trifluoroethyl)alaninamide]
JAK2
  IC50: 10 to 500 nM
JAK3
  IC50: ≤ 10 nM

## COc1cnc2[nH]cc(-c3nncc(N[C@@H](C(=O)NCC(F)(F)F)C(C)C)n3)c2c1 [Example 1-20, N~2~-[3-(5-methoxy-1H-pyrrolo[2,3-b]pylidin-3-yl)-1,2,4-triazin-5-yl]-N-(2,2,2-trifluoroethyl)-D-valinamide]
JAK2
  IC50: 10 to 500 nM
JAK3
  IC50: ≤ 10 nM

## CC(C)[C@@H](Nc1cncc(-c2c[nH]c3ncc(NS(C)(=O)=O)cc23)c1)C(=O)NCC(F)(F)F [Example 5-5, N^2-(5-{5-[(methylsulfonyl)amino]-1H-pyrrolo[2,3-b]pyridin-3-yl}pyridin-3-yl)-N-(2,2,2-trifluoroethyl)-D-valinamide]
JAK2
  IC50: 10 to 500 nM
JAK3
  IC50: 10 to 500 nM

## C[C@@H](Nc1cnnc(-c2c[nH]c3ncc(C(F)(F)F)cc23)c1)C(=O)NCC(F)(F)F [Example 1-25, N-(2,2,2-trifluoroethyl)-N~2~-{6-[5-(trifluoromethyl)-1H-pyrrolo[2,3-b]pyridin-3-yl]pyridazin-4-yl}-D-alaninamide]
JAK2
  IC50: 10 to 500 nM
JAK3
  IC50: ≤ 10 nM

## CC(C)C(Nc1cncc(-c2c[nH]c3ncc(OCC4CCN(C)CC4)cc23)c1)C(=O)NCC(F)(F)F (stereo not drawn) [Example 2-18, N~2~-(5-{5-[(1-methylpiperidin-4-yl)methoxy]-1H-pyrrolo[2,3-b]ppidin-3-yl}pyridin-3-yl)-N-(2,2,2-trifluoroethyl)valinamide]
JAK2
  IC50: 10 to 500 nM
JAK3
  IC50: ≤ 10 nM

## CC(C)[C@@H](Nc1cncc(-c2c[nH]c3ncc(C(=O)NC4CCOCC4)cc23)c1)C(=O)NCC(F)(F)F [Example 3-5, 3-[5-({(1R)-2-methyl-1-[(2,2,2-trifluoroethyl)carbamoyl]propyl}amino)pyridin-3-yl]-N-(tetrahydro-2H-pyran-4-yl)-1H-pyrrolo[2,3-b]pyridine-5-carboxamide]
JAK2
  IC50: ≤ 10 nM
JAK3
  IC50: ≤ 10 nM

## CC(C)[C@H](Nc1cncc(-c2c[nH]c3ncc(OCCc4ccccn4)cc23)c1)C(=O)NCC(F)(F)F [Example 2-12, N~2~-{5-[5-(2-pyridin-2-ylethoxy)-1H-pyrrolo[2,3-b]pyridin-3-yl]pyridin-3-yl}-N-(2,2,2-trifluoroethyl)valinamide]
JAK2
  IC50: 10 to 500 nM
JAK3
  IC50: ≤ 10 nM

## CC(C)[C@H](Nc1cncc(-c2c[nH]c3ncc(CNC(=O)N4CCCC4)cc23)c1)C(=O)NCC(F)(F)F [Example 10-11, N~2~-[5-(5-{[(pyrrolidin-1-ylcarbonyl)amino]methyl}-1H-pyrrolo[2,3-b]pyridin-3-yl)pyridin-3-yl]-N-(2,2,2-trifluoroethyl)valinamide]
JAK2
  IC50: > 500 nM
JAK3
  IC50: 10 to 500 nM

## CC1c2ncc(C(F)(F)F)n2CCN1c1cnnc(-c2c[nH]c3ncc(F)cc23)n1 (stereo not drawn) [Example 1-10, 7-[3-(5-fluoro-1H-pyrrolo[2,3-b]pyridin-3-yl)-1,2,4-triazin-5-yl]-8-methyl-3-(trifluoromethyl)-5,6,7,8-tetrahydroimidazo[1,2-a]pyrazine]
JAK2
  IC50: 10 to 500 nM
JAK3
  IC50: 10 to 500 nM

## CC(C)[C@@H](Nc1cncc(-c2c[nH]c3ncc(Cl)cc23)c1)C(=O)NCC(F)(F)F [Example 1-51, N~2~-[5-(5-chloro-1H-pyrrolo[2,3-b]pyridin-3-yl)pyridin-3-yl]-N-(2,2,2-trifluoroethyl)-D-valinamide]
JAK2
  IC50: ≤ 10 nM
JAK3
  IC50: ≤ 10 nM

## CC(C)[C@@H](Nc1cncc(-c2c[nH]c3ncc(COCCN4CCN(C(=O)OC(C)(C)C)CC4)cc23)c1)C(=O)NCC(F)(F)F [Example 9-3, tert-butyl 4-[2-({3-[5-({(1R)-2-methyl-1-[(2,2,2-trifluoroethyl)carbamoyl]propyl}amino)pyridin-3-yl]-1H-pyrrolo[2,3-b]pyridin-5-yl}methoxy)ethyl]piper-azine-1-carboxylate]
JAK2
  IC50: 10 to 500 nM
JAK3
  IC50: ≤ 10 nM

## C[C@@H](Nc1cncc(-c2c[nH]c3ncc(C#N)cc23)c1)C(=O)NCC(F)(F)F [Example 1-32, N~2~-[5-(5-cyano-1H-pyrrolo[2,3-b]pyridin-3-yl)pyridin-3-yl]-N-(2,2,2-trifluoroethyl)-D-alaninamide]
JAK2
  IC50: 10 to 500 nM
JAK3
  IC50: ≤ 10 nM

## CC(C)[C@H](Nc1cncc(-c2c[nH]c3ncc(OCC4CC4)cc23)c1)C(=O)NCC(F)(F)F [Example 2-6, N~2~-{5-[5-(cyclopropylmethoxy)-1H-pyrrolo[2,3-b]pyridin-3-yl]pyridin-3-yl}-N-(2,2,2-trifluoroethyl)valinamide]
JAK2
  IC50: 10 to 500 nM
JAK3
  IC50: ≤ 10 nM

## CNC(=O)c1cnc2[nH]cc(-c3cncc(N[C@@H](C(=O)NCC(F)(F)F)C(C)C)c3)c2c1 [Example 3-8, N-methyl-3-[5-({(1R)-2-methyl-1-[(2,2,2-trifluoroethyl)carbamoyl]propyl}amino)pyridin-3-yl]-1H-pyrrolo[2,3-b]pyridine-5-carboxamide]
JAK2
  IC50: 10 to 500 nM
JAK3
  IC50: ≤ 10 nM
